Molecules are shown by their SMILES. “Also recorded” adds a separate entry of the source. Structures can show the parent of a compound that is named as a salt.

The subject of data set [1] is LNCaP cells. Kind of data set: Colony formation (clonal survival). In kind it is cell-based, human. Particulars: with or without R1881 0.5 nM, 96 hours, colonies at 14 days; monohydrochloride, monohydrate. An excerpt: (§1) FIG. 3A. […] Ns, not significant. FIG. 3B. […] Ns, not significant. FIG. 3C. […] P values by ANOVA;
A further data set has as its system VCaP cells. Kind of data set: Colony formation (clonal survival). In kind it is cell-based, human. Particulars: with or without R1881 0.5 nM, 96 hours, colonies at 14 days; monohydrochloride, monohydrate.
Source text: as §1

Data set [2] has as its system MYC in LNCaP and VCaP cells. The data set is described as follows: MYC expression by western blot, RT-PCR, RNAseq. Particulars: R1881 10 nM, DFMO 5 mM, 96 hours; monohydrochloride, monohydrate. Type of data set: cell-based, human. An excerpt: (§2) FIG. 5A, FIG. 5B, FIG. 5C, FIG. 5D, and FIG. 5E show: FIG. 5A, MYC expression by IHC in a metastatic tumor biopsy from a patient before and after 3 months of BAT. FIG. 5B, Quantification of MYC protein expression from metastatic tumor biopsies from patients before and after 3 months of BAT color-coded by response (non-responder NR; responder R). […] Vinculin was used as a loading control. FIG. 5D, Principal component analysis of RNA and ATAC sequencing of LNCaP cells treated for 5 days with R1881 10 nM (SPA). […] Vinculin was used as a loading control;
On the technique in general: In western blotting, separated proteins are transferred to a membrane and probed.

Data set [3] deals with hypusinated eIF5A in PCa cell lines. The data set is described as follows: Total and hypusinated eIF5A by western blot. Type of data set: cell-based, human.
Source text: as §2
FIG. 24A. Schematic highlighting generation of hypusinated eIF5A from spermidine. […] Vinculin is used as a loading control. Representative blots of n=2 independent experiments;

In data set [4] the test system is LNCaP cells. Kind of data set: RNAseq of treated LNCaP cells. To be noted: 96 hours. In kind it is cell-based, human.
Source text: Overlap of differentially expressed transcripts occurring due to treatment as per (FIG. 27A). […] Change in RNA transcript abundance of genes located with the 8q24 topologically associated domain (TAD) in LNCaP cells treated as per (FIG. 27A).
The subject of data set [5] is AMD1 transcript in LNCaP cells. Kind of data set: AMD1 transcript stability after actinomycin, RT-PCR. In kind it is cell-based, human.
The conditions of data set [6]: cited from earlier work.

On to `NCCCC(N)(C(=O)O)C(F)F` (centres unmarked) [DFMO, 2-(difluoromethyl)-ornithine, monohydrochloride, monohydrate], for which the “clonal survival / colony formation” value in the data set on LNCaP cells [1] is given as “decreased colony formation”. Moreover, the “clonal survival / colony formation” value in the data set with VCaP cells is recorded as “inhibited clonal survival to a greater extent in R1881-treated cells than vehicle control-treated cells; also recorded: decreased colony formation”. Further, the MYC expression result in data set [2] is “reduced; also recorded: enhances downregulation of MYC by SPA”. The eIF5A hypusination result in data set [3] was “marked reduction”. Also, the “differentially expressed transcripts vs VEH” value in the data set on LNCaP cells [4] is “fewer”. The “half-life of AMD1 transcript” value in data set [5] (96 hours treatment then actinomycin 5 μg/mL) was above 8 h. Also, the “stability of AMD1 transcript” value in data set [5] (monohydrochloride, monohydrate) is “markedly increased stability; also recorded: stabilizes”. Besides, the “side-effects of high doses” value in data set [6] (high doses) is “reversible ototoxicity and myelosuppression”. Further, in data set [6] (human, in vivo), the “chemoprevention trials of breast and cervix cancer” value is “negative”; the “doses not consistently associated with ototoxicity and myelosuppression” value is given as “less than 1 g/m2/d”. Further, the “prostate polyamine levels and prostate growth” value in data set [6] (over one year) is “can reduce prostate polyamine levels and the rate of growth of the prostate”.

The values are drawn from US20260284076A1, “TESTOSTERONE AND DIFLUOROMETHYLORNITHINE COMBINATION THERAPY FOR PROSTATE CANCER” (The Johns Hopkins University, priority 2023, published 2026).
